Experimental data reported in US8685949B2, “Use of 25-hydroxy vitamin D3 to improve vitality of animals” (DSM IP Assets B.V., priority 2005, dated 2014).

How the values were obtained:
[1] = tested on: replacement gilts (Landrace×Large White) / parity-one sows; assay: Reproductive performance of parity-one sows fed 25-hydroxy-vitamin D3 (Experiment 1); type: in vivo, pig
Excerpt: (§1) In a commercial pig farm a total of 27 six-month-old replacement gilts (Landrace×Large White) were selected. There were two dietary treatments in different stages of the reproductive cycle (replacement gilt development, gestation, lactation). The control diet was the standard farm diet without the supplementation of 25-hydroxy-vitamin D3. The experimental diet was the standard farm diet supplemented with 25-hydroxy-vitamin D3 at 50 mcg per kg diet.
(§2) Fourteen (14) gilts were randomly selected and assigned to the control group and the other 13 gilts to the ROVIMIX® Hy•D® 1.25% group. Breeding started when the gilts were 7 months old. They were placed in the gestating stalls after breeding and remained there until 14 days before the expected date of farrowing. They were then weighed and moved to the farrowing stalls. Piglets were weaned at 28 days of age.
(§3) The following data were collected in the farrowing stalls in Experiments 1 and 2: • 1. Litter size at birth • a. Total pigs born • b. Pigs born alive • c. Stillborn pigs • d. Mummified fetuses • 2. Pig weight at birth • 3. Litter size at weaning • 4. Mortality • 5. Pig weight at weaning

[2] = tested on: replacement gilts (Landrace×Large White) / parity-one sows; assay: Reproductive performance of parity-one sows fed 25-hydroxy-vitamin D3 (Experiment 2); type: in vivo, pig
Excerpt: as §1, with “In another” for “In a”, “of 43” for “of 27”
as §2, with “Twenty-two (22)” for “Fourteen (14)”, “21” for “13”
as §3

[3] = 50 mcg per kg diet, 28-day weaning

C=C1CC[C@H](O)C/C1=C/C=C1\CCC[C@]2(C)[C@@H]([C@H](C)CCCC(C)(C)O)CC[C@@H]12 [25-hydroxy-vitamin D3]
BWT = Body weight of pigs at birth ([1]; 50 mcg per kg diet): 1.45 kg
LSBA = Litter size of number of pigs born alive ([1]; 50 mcg per kg diet): 9.77
LSW = Litter size of number of pigs weaned at 28-day weaning [1, 3]: 9.46
Piglet weight gain at 28-day weaning ([1]; birth to 28-day weaning, control 5.33 kg): 5.5 kg
Weaning weights compared with control ([1]; result in words): not different from each other
LSBT = Litter size of total number of pigs at birth ([1]; standard farm diet supplemented with 25-hydroxy-vitamin D3 at 50 mcg per kg diet, gilt development, gestation, lactation): 10.46
Difference in litter size at weaning vs. control ([1]; treated minus control): +1.82
Difference in pigs born alive vs. control ([1]; treated minus control): +1.84
Difference in total pigs born vs. control ([1]; treated minus control): +1.46
LSBA = Litter size of number of pigs born alive ([2]; 50 mcg per kg diet): 9.62
LSW = Litter size of number of pigs weaned at 28-day weaning [2, 3]: 8.48
Difference in litter size at weaning vs. control ([2]; treated minus control): +0.66
Difference in pigs born alive vs. control ([2]; treated minus control): +0.44
